Measurements reported in PubChem BioAssay AID256 (DTP/NCI, 2004).
Where “and” joins values, the source holds several entries; their conditions need not be identical. Equal entries are not always repeated. Inconclusive results and toxic doses are left out. The calls were made as follows: active = survival T/C of 150% or more; inactive = T/C below 125% in these data.

Test system: CD2F1 mice, L1210 leukemia ip, survival T/C
Assay: NCI In Vivo Anticancer Drug Screen. Data for tumor model L1210 Leukemia (intraperitoneal) in CD2F1 (CDF1) mice
Details: higher = longer survival
Experimental: The antitumor activity of compounds was measured in mice bearing transplantable tumors. Survival or tumor size were measured and the results are expressed as the measurement made in the treated group (T) divided by the measurement made in the vehicle treated control group (C). The tumor model used in this assay is L1210 Leukemia (intraperitoneal) in CD2F1 (CDF1) mice

[1] = endpoint: mean survival time, dose: 100.0 mg/kg/injection, schedule: Q01DX009 (ip), vehicle: saline with Tween-80
[2] = endpoint: mean survival time, dose: 200.0 mg/kg/injection, schedule: Q01DX009 (ip), vehicle: saline with Tween-80
[3] = endpoint: mean survival time, dose: 400.0 mg/kg/injection, schedule: Q01DX009 (ip), vehicle: saline with Tween-80
[4] = endpoint: mean survival time, dose: 100.0 mg/kg/injection, schedule: Q01DX001 (ip), vehicle: saline with Tween-80
[5] = endpoint: mean survival time, dose: 100.0 mg/kg/injection, schedule: Q04DX003 (ip), vehicle: saline
[6] = endpoint: mean survival time, dose: 200.0 mg/kg/injection, schedule: Q04DX003 (ip), vehicle: saline
[7] = endpoint: mean survival time, dose: 400.0 mg/kg/injection, schedule: Q04DX003 (ip), vehicle: saline
[8] = endpoint: mean survival time, dose: 50.0 mg/kg/injection, schedule: Q01DX009 (ip), vehicle: saline with Tween-80
[9] = endpoint: mean survival time, dose: 100.0 mg/kg/injection, schedule: Q04DX003 (ip), vehicle: Klucel (hydroxypropylcellulose) (HPC)
[10] = endpoint: mean survival time, dose: 200.0 mg/kg/injection, schedule: Q04DX003 (ip), vehicle: Klucel (hydroxypropylcellulose) (HPC)
[11] = endpoint: mean survival time, dose: 400.0 mg/kg/injection, schedule: Q04DX003 (ip), vehicle: Klucel (hydroxypropylcellulose) (HPC)
[12] = endpoint: mean survival time, dose: 200.0 mg/kg/injection, schedule: Q01DX001 (ip), vehicle: saline with Tween-80
[13] = endpoint: mean survival time, dose: 400.0 mg/kg/injection, schedule: Q01DX001 (ip), vehicle: saline with Tween-80
[14] = endpoint: mean survival time, dose: 100.0 mg/kg/injection, schedule: Q04DX003 (ip), vehicle: saline with Tween-80
[15] = endpoint: mean survival time, dose: 200.0 mg/kg/injection, schedule: Q04DX003 (ip), vehicle: saline with Tween-80
[16] = endpoint: mean survival time, dose: 12.5 mg/kg/injection, schedule: Q01DX009 (ip), vehicle: saline with Tween-80
[17] = endpoint: mean survival time, dose: 25.0 mg/kg/injection, schedule: Q01DX009 (ip), vehicle: saline with Tween-80
[18] = endpoint: mean survival time, dose: 400.0 mg/kg/injection, schedule: Q04DX003 (ip), vehicle: saline with Tween-80

Measured: T/C

COc1ccc(C=Nc2ccccc2)cc1
inactive: [1] 95 % of control | [2] 89 % of control | [3] 89 % of control

O=CC(NC(=O)OCc1ccccc1)C(O)C(O)C(O)CO (configuration not stated)
inactive: endpoint: mean survival time, dose: 25.0 mg/kg/injection, schedule: Q01DX001 (ip), vehicle: saline with Tween-80 105 % of control | endpoint: mean survival time, dose: 50.0 mg/kg/injection, schedule: Q01DX001 (ip), vehicle: saline with Tween-80 102 % of control | [4] 102 % of control

CC(C)(CO)c1ccc(C(c2ccccc2)c2ccccc2)cc1
inactive: endpoint: mean survival time, dose: 50.0 mg/kg/injection, schedule: Q01DX009 (ip), vehicle: other 96 % of control | endpoint: mean survival time, dose: 100.0 mg/kg/injection, schedule: Q01DX009 (ip), vehicle: other 101 % of control | endpoint: mean survival time, dose: 200.0 mg/kg/injection, schedule: Q01DX009 (ip), vehicle: other 96 % of control

C=CCN(CC=C)CC=C
inactive: [5] 95 % of control | [6] 97 % of control | [7] 93 % of control

c1ccc(C(OOC(c2ccccc2)(c2ccccc2)c2ccccc2)(c2ccccc2)c2ccccc2)cc1
inactive: [8] 90 % of control | [1] 90 % of control | [2] 90 % of control

Nc1cc2[nH]cnc2c(=O)[nH]1
inactive: endpoint: mean survival time, dose: 12.5 mg/kg/injection, schedule: Q01DX009 (ip), vehicle: suspension in saline 105 % of control | endpoint: mean survival time, dose: 25.0 mg/kg/injection, schedule: Q01DX005 (ip), vehicle: saline 97 % of control and 111 % of control | endpoint: mean survival time, dose: 25.0 mg/kg/injection, schedule: Q01DX009 (ip), vehicle: suspension in saline 113 % of control | endpoint: mean survival time, dose: 50.0 mg/kg/injection, schedule: Q01DX005 (ip), vehicle: saline 114 % of control and 119 % of control | endpoint: mean survival time, dose: 400.0 mg/kg/injection, schedule: Q01DX009 (ip), vehicle: suspension in saline 90 % of control

COc1ccc(/C=C(/c2ccccc2)[Si](C)(C)C)cc1
inactive: endpoint: mean survival time, dose: 100.0 mg/kg/injection, schedule: Q04DX003 (ip), vehicle: other 91 % of control | endpoint: mean survival time, dose: 200.0 mg/kg/injection, schedule: Q04DX003 (ip), vehicle: other 96 % of control | endpoint: mean survival time, dose: 400.0 mg/kg/injection, schedule: Q04DX003 (ip), vehicle: other 94 % of control

C=CCOc1c(C(=O)OCC)cnc2c1cnn2CC
inactive: [9] 108 % of control | [10] 108 % of control | [11] 101 % of control

CC(=O)/C(=C\c1ccccc1)CNC1CCCCC1
inactive: endpoint: mean survival time, dose: 6.25 mg/kg/injection, schedule: Q01DX001 (ip), vehicle: saline with Tween-80 96 % of control | endpoint: mean survival time, dose: 12.5 mg/kg/injection, schedule: Q01DX001 (ip), vehicle: saline with Tween-80 104 % of control

OC1CCCCCCCCCCC1C(O)(C(F)(F)F)C(F)(F)F (configuration not stated)
inactive: [4] 93 % of control and 89 % of control | [1] 86 % of control | [12] 89 % of control | [2] 91 % of control | [13] 91 % of control | [3] 97 % of control

COc1cc2c(cc1OC)C(Cc1ccccc1)=NCC2
inactive: endpoint: mean survival time, dose: 50.0 mg/kg/injection, schedule: Q01DX009 (ip), vehicle: saline sonified 101 % of control | endpoint: mean survival time, dose: 100.0 mg/kg/injection, schedule: Q01DX009 (ip), vehicle: saline sonified 101 % of control | [14] 94 % of control | [15] 92 % of control

NC(=S)N/N=C/c1ccc(OC(=O)COc2cc(Cl)c(Cl)cc2Cl)cn1
inactive: endpoint: mean survival time, dose: 100.0 mg/kg/injection, schedule: Q04DX002 (ip), vehicle: saline with Tween-80 122 % of control | endpoint: mean survival time, dose: 200.0 mg/kg/injection, schedule: Q04DX002 (ip), vehicle: saline with Tween-80 114 % of control | endpoint: mean survival time, dose: 400.0 mg/kg/injection, schedule: Q04DX002 (ip), vehicle: saline with Tween-80 122 % of control

CS(=O)(=O)OCCCOS(C)(=O)=O
inactive: [16] 107 % of control | [17] 116 % of control | endpoint: mean survival time, dose: 50.0 mg/kg/injection, schedule: Q01DX001 (ip), vehicle: saline 96 % of control | [8] 116 % of control | endpoint: mean survival time, dose: 100.0 mg/kg/injection, schedule: Q01DX001 (ip), vehicle: saline 100 % of control | [1] 105 % of control | [5] 105 % of control | endpoint: mean survival time, dose: 200.0 mg/kg/injection, schedule: Q01DX001 (ip), vehicle: saline 102 % of control | [6] 106 % of control | endpoint: mean survival time, dose: 400.0 mg/kg/injection, schedule: Q01DX001 (ip), vehicle: saline 100 % of control | [7] 110 % of control

CCOC(=O)N(C)N=NC
inactive: endpoint: median survival time, dose: 3.75 mg/kg/injection, schedule: Q01DX005 (ip), vehicle: saline 110 % of control | endpoint: median survival time, dose: 7.5 mg/kg/injection, schedule: Q01DX005 (ip), vehicle: saline 119 % of control | endpoint: median survival time, dose: 10.8 mg/kg/injection, schedule: Q01DX005 (ip), vehicle: saline 124 % of control | endpoint: median survival time, dose: 50.0 mg/kg/injection, schedule: Q01DX005 (ip), vehicle: saline 86 % of control

CCN(CC)CCCC(C)NC(C)CCCN(CC)CC (configuration not stated)
inactive: endpoint: mean survival time, dose: 25.0 mg/kg/injection, schedule: Q01DX009 (ip), vehicle: Klucel (hydroxypropylcellulose) (HPC) 95 % of control | endpoint: mean survival time, dose: 50.0 mg/kg/injection, schedule: Q01DX009 (ip), vehicle: Klucel (hydroxypropylcellulose) (HPC) 95 % of control

CC(C)NC(=O)c1ccc(N/N=[N+](/C)[O-])cc1
inactive: endpoint: mean survival time, dose: 6.25 mg/kg/injection, schedule: Q01DX005 (ip), vehicle: saline with Tween-80 98 % of control | endpoint: mean survival time, dose: 12.5 mg/kg/injection, schedule: Q01DX005 (ip), vehicle: saline with Tween-80 100 % of control | endpoint: mean survival time, dose: 25.0 mg/kg/injection, schedule: Q01DX005 (ip), vehicle: saline with Tween-80 107 % of control | endpoint: mean survival time, dose: 50.0 mg/kg/injection, schedule: Q01DX005 (ip), vehicle: saline with Tween-80 100 % of control | endpoint: mean survival time, dose: 100.0 mg/kg/injection, schedule: Q01DX005 (ip), vehicle: saline with Tween-80 109 % of control | [1] 107 % of control | [14] 94 % of control | [2] 110 % of control | [15] 100 % of control | [3] 117 % of control | [18] 110 % of control

CC(C)(C)CC(C)(C)c1ccc(OCCOc2ccc(C(=O)Nc3ccc([N+](=O)[O-])cc3)cc2)cc1
inactive: endpoint: mean survival time, dose: 100.0 mg/kg/injection, schedule: Q01DX009 (ip), vehicle: Klucel (hydroxypropylcellulose) (HPC) 87 % of control | [9] 96 % of control | endpoint: mean survival time, dose: 200.0 mg/kg/injection, schedule: Q01DX009 (ip), vehicle: Klucel (hydroxypropylcellulose) (HPC) 105 % of control | [10] 98 % of control | [11] 94 % of control

c1ccc(P(=N[P+](c2ccccc2)(c2ccccc2)c2ccccc2)(c2ccccc2)c2ccccc2)cc1
inactive: endpoint: mean survival time, dose: 0.75 mg/kg/injection, schedule: Q01DX009 (ip), vehicle: saline 106 % of control | endpoint: mean survival time, dose: 1.5 mg/kg/injection, schedule: Q01DX009 (ip), vehicle: saline 103 % of control | endpoint: mean survival time, dose: 3.13 mg/kg/injection, schedule: Q01DX009 (ip), vehicle: saline with Tween-80 94 % of control | endpoint: mean survival time, dose: 3.13 mg/kg/injection, schedule: Q04DX002 (ip), vehicle: saline with Tween-80 102 % of control | endpoint: mean survival time, dose: 6.25 mg/kg/injection, schedule: Q04DX002 (ip), vehicle: saline with Tween-80 110 % of control | endpoint: mean survival time, dose: 12.5 mg/kg/injection, schedule: Q04DX002 (ip), vehicle: saline with Tween-80 90 % of control and 93 % of control

CCCCCCC(C)=O
inactive: [14] 98 % of control | [15] 96 % of control | [18] 91 % of control

NC(CC(=O)c1cccc2oc3cc(=O)c4[nH]c(C(=O)O)cc(=O)c4c-3nc12)C(=O)O (configuration not stated)
inactive: endpoint: mean survival time, dose: 50.0 mg/kg/injection, schedule: Q01DX001 (ip), vehicle: carboxymethylcellulose (CMC) 98 % of control | endpoint: mean survival time, dose: 100.0 mg/kg/injection, schedule: Q01DX001 (ip), vehicle: carboxymethylcellulose (CMC) 95 % of control | endpoint: mean survival time, dose: 200.0 mg/kg/injection, schedule: Q01DX001 (ip), vehicle: carboxymethylcellulose (CMC) 95 % of control | endpoint: mean survival time, dose: 400.0 mg/kg/injection, schedule: Q01DX001 (ip), vehicle: carboxymethylcellulose (CMC) 101 % of control

O=C(O)/C=C/C(=O)O
inactive: [4] 93 % of control and 88 % of control | [14] 100 % of control | [12] 94 % of control | [13] 91 % of control

OC1(CSc2ccccc2)CCCCC1
inactive: [16] 98 % of control | [17] 101 % of control | [8] 102 % of control | [1] 102 % of control | [2] 104 % of control | [3] 101 % of control
